Source: the NIST ThermoML archive (doi:10.1021/je2010209)

Assay: xn = mol fraction of the nth substance listed
Details: 101 kPa, Liquid; for speed of sound: Sing-around technique in a fixed-path interferometer; for mass density: Vibrating tube method

COCCO [2-methoxyethan-1-ol] + CCCCn1cc[n+](C)c1.F[B-](F)(F)F
Details	mass density [kg/m3]	speed of sound [m/s]
288.15 K, x2 = 0	969.794	1380
288.15 K, x2 = 0.0509	1000.6	1411
288.15 K, x2 = 0.1092	1030.06	1438
288.15 K, x2 = 0.2052	1068.45	1474
288.15 K, x2 = 0.3071	1099.91	1500
288.15 K, x2 = 0.4025	1123.36	1521
288.15 K, x2 = 0.5116	1145.2	1539
288.15 K, x2 = 0.6257	1164.11	1553
288.15 K, x2 = 0.7153	1176.88	1565
288.15 K, x2 = 0.8088	1188.61	1574
288.15 K, x2 = 0.9155	1199.86	1582
293.15 K, x2 = 0	965.063	1367
293.15 K, x2 = 0.0509	996.158	1394
293.15 K, x2 = 0.1092	1025.74	1422
293.15 K, x2 = 0.2052	1064.33	1460
293.15 K, x2 = 0.3071	1095.87	1486
293.15 K, x2 = 0.4025	1119.42	1508
293.15 K, x2 = 0.5116	1141.38	1527
293.15 K, x2 = 0.6257	1160.35	1542
293.15 K, x2 = 0.7153	1173.17	1554
293.15 K, x2 = 0.8088	1184.96	1563
293.15 K, x2 = 0.9155	1196.25	1571
298.15 K, x2 = 0	960.447	1351
298.15 K, x2 = 0.0509	991.715	1378
298.15 K, x2 = 0.1092	1021.41	1406
298.15 K, x2 = 0.2052	1060.08	1446
298.15 K, x2 = 0.3071	1091.76	1472
298.15 K, x2 = 0.4025	1115.42	1494
298.15 K, x2 = 0.5116	1137.55	1514
298.15 K, x2 = 0.6257	1156.59	1530
298.15 K, x2 = 0.7153	1169.47	1542
298.15 K, x2 = 0.8088	1181.31	1551
298.15 K, x2 = 0.9155	1192.64	1560
303.15 K, x2 = 0	955.825	1337
303.15 K, x2 = 0.0509	987.145	1361
303.15 K, x2 = 0.1092	1017.07	1391
303.15 K, x2 = 0.2052	1056.15	1431
303.15 K, x2 = 0.3071	1087.96	1457
303.15 K, x2 = 0.4025	1111.59	1480
303.15 K, x2 = 0.5116	1133.65	1501
303.15 K, x2 = 0.6257	1152.84	1517
303.15 K, x2 = 0.7153	1165.77	1530
303.15 K, x2 = 0.8088	1177.66	1539
303.15 K, x2 = 0.9155	1189.04	1548
308.15 K, x2 = 0	951.214	1321
308.15 K, x2 = 0.0509	982.765	1344
308.15 K, x2 = 0.1092	1012.72	1375
308.15 K, x2 = 0.2052	1051.85	1415
308.15 K, x2 = 0.3071	1083.79	1443
308.15 K, x2 = 0.4025	1107.66	1467
308.15 K, x2 = 0.5116	1129.9	1488
308.15 K, x2 = 0.6257	1149.1	1505
308.15 K, x2 = 0.7153	1162.09	1517
308.15 K, x2 = 0.8088	1174.01	1526
308.15 K, x2 = 0.9155	1185.43	1536
313.15 K, x2 = 0	946.562	1304
313.15 K, x2 = 0.0509	978.381	1328
313.15 K, x2 = 0.1092	1008.49	1359
313.15 K, x2 = 0.2052	1047.68	1400
313.15 K, x2 = 0.3071	1079.71	1430
313.15 K, x2 = 0.4025	1103.68	1453
313.15 K, x2 = 0.5116	1126.04	1475
313.15 K, x2 = 0.6257	1145.37	1492
313.15 K, x2 = 0.7153	1158.41	1505
313.15 K, x2 = 0.8088	1170.38	1514
313.15 K, x2 = 0.9155	1181.84	1525
318.15 K, x2 = 0	941.864	1287
318.15 K, x2 = 0.0509	973.683	1311
318.15 K, x2 = 0.1092	1004.01	1343
318.15 K, x2 = 0.2052	1043.46	1383
318.15 K, x2 = 0.3071	1075.71	1415
318.15 K, x2 = 0.4025	1099.79	1440
318.15 K, x2 = 0.5116	1122.25	1461
318.15 K, x2 = 0.6257	1141.63	1479
318.15 K, x2 = 0.7153	1154.74	1492
318.15 K, x2 = 0.8088	1166.72	1502
318.15 K, x2 = 0.9155	1178.23	1513
